Results from US7365191B2, “Type of oligosaccharides and their sulfate derivatives” (Shanghaimed Co., Ltd, priority 2001, dated 2008).

Key:
U14 tumor cells = assay: Inhibition of U14 tumor implanted in mice; details: for inhibition (%) / quotient of noumenal tumor (%): U14 implanted mice; for quotient of noumenal tumor (%): ±SD
Method: Thus, the inhibition of tumor cells by the said oligosaccharides was tested using implanted tumor cells in mice. • (1) Tests of the said Oligosaccharides and their Sulfates on Mice in which Tumor Cells were Implanted. A. Materials and Methods
Cell line for the tests: U14 cell line was procured from The Tumor Research Group, The Institute of Chinese Herbal Medicine, Chinese Academy of Traditional Chinese Medicine;
Animals for the tests: 70 Kunming male mice (weight 20±2 g, grade II) were obtained from the Experimental Animal Center, the Chinese Academy of Medicine.
Medicine for control test: Cyclophosphamide was obtained from Shanghai Hualian Pharmaceutical Ltd, permit number 012034, 1995, Shanghai.
Mice grouping and administration: • a. U14 cell line group: physical saline, IP, 0.2 mL/d×10 d • b. Group treated with hexasaccharide 18: IP 10 mg/kg×10 d, 0.2 mL/d • c. Group treated with octyl hexaoside 18′: IP 10 mg/kg×10 d, 0.2 mL/d • d. Group treated with heptasaccharide 24: IP 10 mg/kg×10 d, 0.2 mL/d • e. Group treated with sulfated hexaose 25: IP 10 mg/kg×10 d, 0.2 mL/d • f. Group treated with cyclophosphamide: IP, 70 mg/kg×10 d, 0.1 mL/d (Cyclophosphamide was given to the mice by intraperitoneal at 24 h after the planting. After 48 h of the 1st injection, the 2nd injection was given, and after 48 h of the 2nd injection, the last injection was given). Test: U14 cells obtained from U14 mouse were diluted and counted. Each mouse was implanted with 0.2 ml (corresponding to 4×10^6 cells). A total of sixty mice were implanted. B. Test Results
1 h post administration of the last dose, the mice were weighed. The right-upper arm of the mice was cut after sterilization, and the tumor section was removed. The quotient of noumenal tumor (%) and inhibition (%) were calculated.

spleen B lymphocytes = assay: Immune enhancing activity: 3H-thymidine incorporation of spleen B lymphocytes from treated C57 mice, stimulated with Bal/bc lymphocytes; type: in vivo; details: 0.1 mL/d × 8d
Method: a. Medicine and reagents: synthetic lentinan hexaose 18, synthetic lentinan methyl α-heptaoside 24, synthetic lentinan octyl hexaoside 18′, lentinan (brand: Tian Di Xin) is produced by Nanjing Zhenzhong Biotech Ltd.
b. Animals: C57 mice were provided by Animal Center, Academia Sinica, weighing 20±2 g.
c. grouping and administration: the 50 mice were randomly allocated to 10 groups according to weight
The mice were injected IP with different doses of lentinan oligosaccharides listed above. […] Then the spleen B lymphocytes were extracted. The following experiment was then performed with the extracted lymphocytes: the 10^6 B cells were transferred to 96-well “U” shaped bottom plate, then the lymphocytes of Bal/bc mice were used as antigens to stimulate the B cells. After 4 days, ^3H-Thymidine was intermingled with the system and the B cells were collected 18 hours after. The isotopic incorporation was assessed by scintillation counting. Compared with positive control and minus control, the immuno-enhanced effect of these oligosaccharides was evaluated.

[1] = system: leukocyte infiltrate in air pouch; assay: Thioglycollate-induced air pouch inflammation in mice; type: in vivo, mouse; details: dose 25 mg/kg subq.
Method: Test method: Subcutaneous air pouches were formed on the backs of mice by injecting 5 mL of sterile air below the skin of a shaved area between the scapulae of an anaesthetized mouse. After 2 days post-injection the pouch was reinflated by the injection of 2.5 mL of air. Inflammation was induced on day 6 by injecting directly into the pouch 1.0 mL of 56 mg/mL thioglycollate or 1.0 mL of saline as a control. Approximately 17-20 h after thioglycollate injection, the animals were killed, and the cellular contents of the pouch retrieved by the injection of 2.5 mL of PBS/5% FCS. The sulfated octyl hexaoside 25 was tested for its ability to inhibit the inflammatory reaction by being injected subq. in a separate site immediately following administration of the thioglycollate. Prednisolone was used as a control anti-inflammatory drug, and was injected subq. at 25 mg/kg. The total cellular contents of each pouch were determined using a Coulter Counter and different leukocyte subpopulations were assessed by immunofluorescent flow cytometry.

[2] = IP 10 mg/kg×10 d (dose of 17 not given)
[3] = IP 10 mg/kg, relative to control

| SMILES | inhibition (%) (U14 tumor cells; [2]) | quotient of noumenal tumor (%) (U14 tumor cells; [2]) | 3H-TdR incorporation (spleen B lymphocytes; IP 1 mg/kg, control 3394) | enhancement rate (%) (spleen B lymphocytes; IP 1 mg/kg, control = 100) | 3H-TdR incorporation (spleen B lymphocytes; IP 10 mg/kg, control 3045) | enhancement rate (%) (spleen B lymphocytes; [3]) | inhibition (%) (U14 tumor cells; cyclophosphamide IP 70 mg/kg) | quotient of noumenal tumor (%) (U14 tumor cells; cyclophosphamide IP 70 mg/kg) | weight (U14 tumor cells; mouse weight 1 h after last dose, cyclophosphamide IP 70 mg/kg) [g] | leukocyte infiltrate in air pouch in comparison to the control [1] [%] |
| --- | --- | --- | --- | --- | --- | --- | --- | --- | --- | --- |
| CCCCCCCCOC1OC(COC2OC(CO)C(O)C(O)C2O)C(O)C(OC2OC(CO)C(O)C(OC3OC(COC4OC(CO)C(O)C(O)C4O)[C@@H](O)C(OC4OC(CO)C(O)C(O)C4O)C3O)C2O)C1O (stereo partly shown) [18′] | 58.43 | 1.54 ± 0.56 | 5547 | 163 | 6082 | 200 | – | – | – | – |
| OCC1OC(OCC2OC(O)C(O)C(OC3OC(CO)C(O)C(OC4OC(COC5OC(CO)C(O)C(O)C5O)[C@@H](O)C(OC5OC(CO)C(O)C(O)C5O)C4O)C3O)C2O)C(O)C(O)C1O (stereo partly shown) [compound 18] | 29.41 | 2.63 ± 0.90 | 5497 | 162 | 6084 | 200 | – | – | – | – |
| COC1OC(CO)[C@@H](O)C(O[C@H]2OC(CO[C@@H]3OC(CO)[C@@H](O)C(O)C3O)[C@@H](O)C(O[C@@H]3OC(CO)[C@@H](O)C(O[C@H]4OC(CO[C@@H]5OC(CO)[C@@H](O)C(O)C5O)[C@@H](O)C(O[C@@H]5OC(CO)[C@@H](O)C(O)C5O)C4O)C3O)C2O)C1O (stereo partly shown) [compound 24] | 41.21 | 2.54 ± 1.89 | 5546 | 163 | 5087 | 167 | – | – | – | – |
| O=P1(N(CCCl)CCCl)NCCCO1 (stereo not shown) [cyclophosphamide, Cyclophosphamide, reference compound] | – | – | – | – | – | – | 43.89 | 1.86 ± 0.73 | 28.00 ± 1.78 | – |
| C[C@]12C=CC(=O)C=C1CC[C@@H]1[C@@H]2[C@@H](O)C[C@@]2(C)[C@H]1CC[C@]2(O)C(=O)CO [prednisolone, Prednisolone] | – | – | – | – | – | – | – | – | – | 56±14 |
